For one assay, the target named is HLA-A*02:01 (Homo sapiens, UniProt P04439, D140Y/D185E/D98H/E176V/E277Q/G131W/G231S/I119V/I121R/I166T/I218V/L300P/L318F/N151K/N90K/P208A/P217A/Q86G/Q94H/R138H/R169H/T345S). Briefly: biochemical. It counts as binding.
Assay [1] has as its target recombinant HLA-DRA*01:01/DRB1*01:01 molecules (Homo sapiens, UniProt P01903+P01911, A100R/D57E/F55L/F60I/F76Y/I96L/L162R/M171V/P40L/Q125E/R42F/V115G/Y59C). Kind of assay: biochemical. It counts as binding.
In assay [2] the test system is CD8 and CD4 T cells of HLA-A*02:01/HLA-DRB1*01:01 transgenic mice. It counts as in vivo. Set-up: key: I, CD8 response; II, CD4 response; -,no response. The conditions noted are these: CAF09 + 20 nmol peptide i.p. three times at two week intervals; IFNγ ELISpot one week after last immunization (Fig 1).
The mark [3] stands for this setting: […], peptide concentration at half-saturation as approximation of KD, read-out: HLA-A*02:01 Measured.
Setting [4] is: read-out: HLA-DRB1*01:01 Measured.

We go through 19 compounds from paper PMC4701504, “Immunogenicity of HLA Class I and II Double Restricted Influenza A-Derived Peptides” (PLoS ONE, 2016).

Read-outs that look alike come from different tables or passages of the source. Where a SMILES comes first, the peptide text is derived from it.

As to `CSCC[C@H](NC(=O)[C@@H](N)Cc1ccccc1)C(=O)N[C@@H](CCC(N)=O)C(=O)N[C@@H](C)C(=O)N[C@@H](CC(C)C)C(=O)N[C@@H](Cc1c[nH]cn1)C(=O)N[C@@H](CC(C)C)C(=O)N[C@@H](CC(C)C)C(=O)N[C@@H](CC(C)C)C(=O)O` [NS2(99–107)] (H-FMQALHLLL-OH), the results for the Kd (at HLA-A*02:01 (setting [3]); in assay [1] (setting [4])) were 13 nM and over 5000 nM, respectively. As for LLQNSQVYS [NP(306–315)], in assay [1] (pH 7, read-out: HLA-DRB1*01:01 Measured), the Kd is over 5000 nM. Further, the “Response: type of immune response, CD4 (second symbol)” value in assay [2] was “-”.

`CSCC[C@H](NC(=O)[C@@H](N)CCCNC(=N)N)C(=O)NCC(=O)N[C@@H](C)C(=O)N[C@H](C(=O)N[C@H](C(=O)N[C@H](C(=O)N[C@@H](CCC(=O)O)C(=O)N[C@H](C(=O)O)C(C)C)[C@@H](C)O)[C@@H](C)O)C(C)C` [M(134–142)] (H-RMGAVTTEV-OH): the Kd on HLA-A*02:01 was 133 nM; in assay [1] (setting [4]) it was over 5000 nM. As to `CC[C@H](C)[C@H](NC(=O)[C@H](CC(C)C)NC(=O)[C@H](C)NC(=O)[C@H](CO)NC(=O)[C@H](CCCNC(=N)N)NC(=O)[C@H](C)NC(=O)[C@H](CC(C)C)NC(=O)[C@@H](N)Cc1ccccc1)C(=O)N[C@@H](CC(C)C)C(=O)O` [NP(258–266)] (H-FLARSALIL-OH), the Kd on HLA-A*02:01 was determined as 0.9 nM; in assay [1] (setting [4]), 97 nM. On to `CC(C)C[C@H](NC(=O)[C@H](CCCCN)NC(=O)[C@H](CC(C)C)NC(=O)[C@@H](NC(=O)[C@H](CC(N)=O)NC(=O)[C@H](CCC(N)=O)NC(=O)[C@H](CCCCN)NC(=O)[C@@H](NC(=O)[C@H](Cc1ccc(O)cc1)NC(=O)[C@H](CCCCN)NC(=O)[C@@H](N)Cc1ccc(O)cc1)C(C)C)[C@@H](C)O)C(=O)N[C@@H](C)C(=O)N[C@H](C(=O)N[C@@H](Cc1c[nH]cn1)C(=O)N[C@@H](Cc1c[nH]cn1)C(=O)N[C@@H](Cc1c[nH]cn1)C(=O)N[C@@H](Cc1c[nH]cn1)C(=O)N[C@@H](Cc1c[nH]cn1)C(=O)N[C@@H](Cc1c[nH]cn1)C(=O)O)[C@@H](C)O` [Reference peptide, reference compound] (H-YKYVKQNTLKLATHHHHHH-OH), for which the Kd in assay [1] was 8 nM. As to `CC[C@H](C)[C@H](NC(=O)[C@@H]1CCCN1C(=O)[C@H](Cc1ccc(O)cc1)NC(=O)[C@H](CCCCN)NC(=O)[C@H](CCSC)NC(=O)[C@H](C)NC(=O)[C@H](CCSC)NC(=O)[C@H](CCSC)NC(=O)[C@@H](N)Cc1c[nH]c2ccccc12)C(=O)N[C@H](C(=O)N[C@@H](C)C(=O)O)[C@@H](C)O` [PB2(49–59)] (H-WMMAMKYPITA-OH), the Kd came to 75 nM at HLA-A*02:01 (setting [3]) and 528 nM in assay [1] (setting [4]). On to `CSCC[C@H](NC(=O)[C@@H](N)CC(N)=O)C(=O)N[C@@H](CC(C)C)C(=O)N[C@@H](CO)C(=O)N[C@H](C(=O)N[C@H](C(=O)N[C@@H](CC(C)C)C(=O)NCC(=O)N[C@H](C(=O)O)C(C)C)C(C)C)[C@@H](C)O` [PB1(413–421)] (H-NMLSTVLGV-OH), for which the Kd on HLA-A*02:01 (setting [3]) is 16 nM; in assay [1] (setting [4]), over 5000 nM. On to `CSCC[C@H](NC(=O)CN)C(=O)N[C@@H](Cc1ccccc1)C(=O)N[C@@H](CC(N)=O)C(=O)N[C@@H](CCSC)C(=O)N[C@@H](CC(C)C)C(=O)N[C@@H](CO)C(=O)N[C@H](C(=O)N[C@H](C(=O)O)C(C)C)[C@@H](C)O` [PB1(410–418)] (H-GMFNMLSTV-OH), for which the Kd at HLA-A*02:01 (setting [3]) was found to be 23 nM; in assay [1] (setting [4]), 34 nM. Turning to `CSCC[C@H](NC(=O)CNC(=O)[C@H](CCSC)NC(=O)[C@H](CCSC)NC(=O)[C@@H](N)CCSC)C(=O)N[C@@H](Cc1ccccc1)C(=O)N[C@@H](CC(N)=O)C(=O)N[C@@H](CCSC)C(=O)N[C@@H](CC(C)C)C(=O)N[C@@H](CO)C(=O)N[C@H](C(=O)O)[C@@H](C)O` [PB1(407–417)] (H-MMMGMFNMLST-OH), the Kd at HLA-A*02:01 (setting [3]) turned out to be 36 nM; in assay [1] (setting [4]), 315 nM. In the same order, the values of `CC[C@H](C)[C@H](NC(=O)[C@H](CC(C)C)NC(=O)[C@@H](N)Cc1ccc(O)cc1)C(=O)N[C@@H](CCCNC(=N)N)C(=O)N[C@@H](C)C(=O)N[C@@H](CC(C)C)C(=O)N[C@H](C(=O)N[C@@H](CC(C)C)C(=O)N[C@@H](CC(N)=O)C(=O)N[C@H](C(=O)N[C@@H](CCSC)C(=O)O)[C@@H](C)O)[C@@H](C)O` [PB1(217–227)] (H-YLIRALTLNTM-OH) are 46 nM and 76 nM. As to `CC[C@H](C)[C@H](N)C(=O)N[C@H](C(=O)N[C@@H](CC(C)C)C(=O)N[C@@H](CCCCN)C(=O)N[C@@H](C)C(=O)N[C@@H](CC(N)=O)C(=O)N[C@@H](Cc1ccccc1)C(=O)N[C@@H](CO)C(=O)N[C@H](C(=O)O)C(C)C)[C@@H](C)CC` [NS1(128–136)] (H-IILKANFSV-OH), the figures for the Kd (on HLA-A*02:01 (setting [3]); in assay [1] (setting [4])) were 45 nM and over 5000 nM, respectively. On to `CC[C@H](C)[C@H](NC(=O)CNC(=O)[C@@H](NC(=O)[C@H](CC(C)C)NC(=O)[C@@H](N)CO)C(C)C)C(=O)N[C@@H](CC(=O)O)C(=O)N1CCC[C@H]1C(=O)N[C@@H](Cc1ccccc1)C(=O)N[C@@H](CCCNC(=N)N)C(=O)N[C@@H](CC(C)C)C(=O)O` [NP(297–306)] (H-SLVGIDPFRL-OH), for which the Kd amounted to 70 nM at HLA-A*02:01 (setting [3]) and 460 nM in assay [1]. Consider `CSCC[C@H](NC(=O)CN)C(=O)N[C@@H](Cc1ccccc1)C(=O)N[C@@H](CC(N)=O)C(=O)N[C@@H](CCSC)C(=O)N[C@@H](CC(C)C)C(=O)N[C@@H](CO)C(=O)N[C@H](C(=O)N[C@H](C(=O)N[C@@H](CC(C)C)C(=O)O)C(C)C)[C@@H](C)O` [PB1(410–419)] (H-GMFNMLSTVL-OH), for which the Kd on HLA-A*02:01 (setting [3]) was determined as 384 nM; in assay [1] (setting [4]) it was 29 nM.

Turning to `CC[C@H](C)[C@H](NC(=O)[C@@H]1CCCN1C(=O)[C@H](Cc1ccc(O)cc1)NC(=O)[C@H](CCCCN)NC(=O)[C@H](CCSC)NC(=O)[C@H](C)NC(=O)[C@H](CCSC)NC(=O)[C@H](CCSC)NC(=O)[C@@H](N)Cc1c[nH]c2ccccc12)C(=O)O` [PB2(49–57)] (H-WMMAMKYPI-OH), the Kd at HLA-A*02:01 (setting [3]) was 36 nM; in assay [1] (setting [4]), over 5000 nM. As to `CSCC[C@H](NC(=O)[C@H](CO)NC(=O)[C@H](CCC(=O)O)NC(=O)[C@H](CCSC)NC(=O)[C@@H](NC(=O)[C@H](CC(=O)O)NC(=O)[C@H](CCCCN)NC(=O)[C@H](CC(C)C)NC(=O)[C@@H](N)Cc1ccccc1)C(C)C)C(=O)O` [PB1(166–174)] (H-FLKDVMESM-OH), the Kd was 51 nM at HLA-A*02:01 (setting [3]) and over 5000 nM in assay [1]. As for `CC[C@H](C)[C@H](NC(=O)[C@H](CO)NC(=O)[C@H](CC(C)C)NC(=O)[C@H](CCCCN)NC(=O)[C@H](CC(C)C)NC(=O)[C@H](C)NC(=O)[C@H](CC(=O)O)NC(=O)[C@H](CCSC)NC(=O)[C@H](CC(C)C)NC(=O)[C@H](CC(C)C)NC(=O)[C@@H](N)Cc1ccccc1)C(=O)O` [PA(282–292)] (H-FLLMDALKLSI-OH), the results for the Kd (at HLA-A*02:01 (setting [3]); in assay [1] (setting [4])) were 24 nM and 23 nM, respectively. In the case of `CC[C@H](C)[C@H](NC(=O)[C@@H]1CCCN1C(=O)[C@H](CCCNC(=N)N)NC(=O)[C@@H](NC(=O)[C@H](CCCCN)NC(=O)[C@H](CC(C)C)NC(=O)[C@H](Cc1c[nH]c2ccccc12)NC(=O)[C@H](CCC(=O)O)NC(=O)[C@H](CCSC)NC(=O)[C@H](CC(C)C)NC(=O)[C@@H](N)C(C)C)[C@@H](C)O)C(=O)O` [M(41–51)] (H-VLMEWLKTRPI-OH), the Kd at HLA-A*02:01 (setting [3]) was found to be 101 nM; in assay [1] (setting [4]) it was 119 nM. For the compound `CSCC[C@H](NC(=O)CNC(=O)[C@H](CCSC)NC(=O)[C@@H](N)CCSC)C(=O)N[C@@H](Cc1ccccc1)C(=O)N[C@@H](CC(N)=O)C(=O)N[C@@H](CCSC)C(=O)N[C@@H](CC(C)C)C(=O)N[C@@H](CO)C(=O)N[C@H](C(=O)N[C@H](C(=O)O)C(C)C)[C@@H](C)O` [PB1(408–418)] (H-MMGMFNMLSTV-OH), the Kd on HLA-A*02:01 (setting [3]) was found to be 51 nM; in assay [1] (setting [4]), 172 nM. Regarding `CC[C@H](C)[C@H](NC(=O)[C@H](CCSC)NC(=O)[C@H](C)NC(=O)[C@H](CC(C)C)NC(=O)[C@@H](N)Cc1ccccc1)C(=O)N[C@H](C(=O)N[C@@H](Cc1ccc(O)cc1)C(=O)N[C@@H](CCSC)C(=O)N[C@H](C(=O)O)[C@@H](C)O)[C@@H](C)O` [PB1(318–326)] (H-FLAMITYMT-OH), the values for the Kd (at HLA-A*02:01 (setting [3]); in assay [1] (setting [4])) were 253 nM and 557 nM, respectively.
